Measured values published in patent US5696231A, “N-substituted glycine derivatives as enzyme inhibitors” (Corvas International, Inc., priority 1994, dated 1997).

Assays:
[1] = system: pooled normal human plasma; assay: Activated partial thromboplastin time (APTT) assay in citrated human plasma; assay type: biochemical
Text: (§1) FIG. 2 depicts the anticoagulant effect of (D)-camphorsulfonyl aspartyl sarcosine arginine aldehyde measured in citrated human plasma using the activated partial thromboplastin time (APTT) assay, closed circles (1), and prothrombin time (PT) assay, open triangles (D). The control clotting times (0 inhibitor) for the APTT and PT assays in human plasma were 29 seconds and 13 seconds, respectively. The concentration of (D)-camphorsulfonyl aspartyl sarcosine arginine aldehyde which caused a doubling of the control clotting times in the APTT and PT assays were 54 micromolar and 298 micromolar, respectively. The data is the mean of two independent determinations.
(§2) The ex vivo anticoagulant effect of a compound of the present invention, (D)-camphorsulfonyl aspartyl sarcosine arginine aldehyde (Example 56), was determined by measuring the prolongation of the activated partial thromboplastin time (APTT) and prothrombin time (PT) over a broad concentration range of the added inhibitor, using pooled normal human plasma.
(§3) Fresh frozen citrated pooled normal human plasma was obtained from George King Biomedical, Overland Park, Kansa. […]

[2] = system: pooled normal human plasma; assay: Prothrombin time (PT) assay in citrated human plasma; assay type: biochemical; conditions: control clotting time 13 seconds, mean of two independent determinations
Text: as §1, §2, §3

## CN(CC(=O)N[C@H](C=O)CCCN=C(N)N)C(=O)[C@H](CC(=O)O)NS(=O)(=O)C[C@]12CC[C@H](CC1=O)C2(C)C [(D)-camphorsulfonyl aspartyl sarcosine arginine aldehyde]
[1]; citrated human plasma, control clotting time 29 seconds, mean of two independent determinations
  concentration which caused a doubling of the control clotting time in the APTT assay: 54 µM
[1]; human plasma, broad concentration range of added inhibitor (FIG. 2)
  prolongation of the APTT: prolonged the APTT in a dose dependent manner
[2]
  concentration which caused a doubling of the control clotting time in the PT assay: 298 µM
